This is an account of results in ChEMBL document CHEMBL1201862, “PubChem BioAssay data set” (2004).

The nature of assay [1]: A2780 ovarian cancer cell cytotoxicity, dose response, cytotoxicity control, plate reader, dry powder samples (AID 743046). It is filed as functional, cell-based.
The target of another assay is Paired box protein Pax-8 (Homo sapiens, UniProt Q06710). As to the kind of experiment: inhibitors of PAX8-driven TPO luciferase reporter, dose response, RMG-I cells, cherry-pick (AID 687027).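 Note: luciferase reporter driven by Pax8 target thyroperoxidase promoter measured by SteadyGlo luminescence.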 It is filed as functional, cell-based.
The nature of assay [2]: IOSE-T80 ovarian epithelial cell cytotoxicity, dose response, cytotoxicity control for PAX8 inhibitor project, plate reader, dry powder samples (AID 743045). It is filed as functional, cell-based.
Assay [3] can be described thus: cytotoxicity in OVCAR8 ovarian cancer cells, dose response, PAX8 project, cell-based, plate reader, dry powder samples (AID 743197). It is filed as functional. The settings on record: OVCAR-8.
The nature of assay [4]: NIH:OVCAR-3 ovarian cancer cell cytotoxicity, dose response, PAX8 inhibitor project, plate reader, dry powder samples (AID 743044). It is filed as functional, cell-based.
Assay [5] in a line: IGROV1 ovarian cancer cell cytotoxicity, dose response, PAX8 inhibitor project, plate reader, dry powder samples (AID 743043). It is filed as functional, cell-based. As to conditions: IGROV-1.
A further assay has as its target Kallikrein-7 (Homo sapiens, UniProt P49862). As to the kind of experiment: Fluorescence Intensity-based biochemical primary high throughput dose response assay to identify activators of kallikrein-7 (K7) zymogen.
A short description of assay [6]: Orthopox viral replication plaque formation Measured in Cell-Based and Microorganism Combination System Using Imaging - 2142-05_Inhibitor_Dose_DryPowder_Activity. It is filed as functional.
Assay [7] in a line: Single fluorophore orthopox expression reporter, late gene expression Measured in Cell-Based and Microorganism Combination System Using Plate Reader - 2142-08_Inhibitor_Dose_DryPowder_Activity. It is filed as functional.
The nature of assay [8]: A549 cell cytotoxicity, dose response, CellTiter-Glo luminescence, dry powder, set 17 (AID 1117284). It is filed as functional, cell-based.
The nature of assay [9]: inhibitors of orthopox intermediate gene expression, dose response, cell-based, single fluorophore reporter, dry powder (AID 1117271). It is filed as functional.
Assay [10] deals with NAD-dependent protein deacylase sirtuin-5, mitochondrial (Homo sapiens, UniProt Q9NXA8). As to the kind of experiment: SIRT5 desuccinylase inhibitors, dose response, biochemical, fluorescence imaging, cherry-pick, set 5 (AID 720591).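 Note: desuccinylation of succinyl peptide AMC substrate read as fluorescence after trypsin release; potency of inhibitors that lower fluorescence and may act on trypsin instead.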
Assay [11] is described as follows: inhibitors of clade B AD8 Env fusion, dose response, cell-based, cherry-pick (AID 652062).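 Note: luciferase signal from cell-cell fusion driven by HIV-1 clade B AD8 Env; potency is for inhibitors of fusion seen as a drop in luminescence.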 It is filed as functional.
A further assay has as its target Cytochrome P450 3A4 (Homo sapiens, UniProt P08684).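 Note: CYP3A4 tested as one member of a cytochrome P450 panel screen.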
Another assay concerns Jurkat. As to the kind of experiment: antigen receptor-induced NF-kB inhibitors, dose response, Jurkat, luciferase reporter, luminescence, B- and T-cell (AID 489004).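 Note: NF-kB luciferase reporter Jurkat cells stimulated with PMA plus ionomycin.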 It is filed as functional, cell-based. The settings on record: Homo sapiens. In general terms: In a reporter assay the amount or activity of a reporter protein is the signal.
Assay [12] deals with COUP transcription factor 2 (Homo sapiens, UniProt P24468). As to the kind of experiment: Luminescence-based cell-based high throughput dose response assay to identify inhibitors of COUP-TFII (NR2F2). It is filed as functional.
A further assay concerns INS1. Briefly: beta cell apoptosis inhibitors, cytokine rescue, dose response, luminescence, retest (AID 449756).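 Note: cell death triggered by IL-1 beta plus TNF-alpha plus IFN-gamma mixture; protective hits raise ATP signal compared with cytokine alone wells.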 It is filed as functional, cell-based. The settings on record: Rattus norvegicus.
The next assay addresses Cytochrome P450 2C19 (Homo sapiens, UniProt P33261). Briefly: Cytochrome panel assay with activity outcomes. Panel member name: p450-cyp2c19 Compounds with AC50 equal or less than 10 uM are considered active. The settings on record: read-out: AC50. It is filed as functional.
Assay [13] in a line: ZM109 Env clade C HIV-1 fusion inhibitors, dose response, HeLa effector, CEM target cells, luciferase, cherry-pick (AID 652058). It is filed as functional, cell-based.
Assay [14] is described as follows: cytotoxicity in HEK-293T NF-kB-Luc cells, dose response, cytotoxicity control for B/T-cell NF-kB inhibitor project, cell-based, uHTS hits (AID 489019).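 Note: IC50 reflects cytotoxicity as loss of cell viability.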 It is filed as functional.
The target of the next assay is Galanin receptor type 3 (Homo sapiens, UniProt O60755). Briefly: Fluorescence-based cell-based primary high throughput dose response assay to identify antagonists of the Galanin Receptor 3 (GalR3). It is filed as functional.
Assay [15] in a line: inhibitors of HIV Env-driven cell fusion, dose response, cherry-pick (AID 652057). It is filed as functional, cell-based.
Assay [16] is described as follows: cells. It is filed as functional, cell-based. The settings on record: HEK-CNG.
For another assay, the target named is Bcl-2-like protein 10 (Homo sapiens, UniProt Q9HD36). As to the kind of experiment: displacers of TR3 peptide from Bcl-B, primary screen, selectivity assay for Bfl-1 inhibitor project, biochemical, fluorescence polarization, FITC-TR3 peptide (AID 748).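 Note: fluorescence polarization from a fluorescein-labelled TR3 peptide binding purified Bcl-B.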 Background: Polarisation of emitted light reports the rotation of a fluorescent probe.
Assay [17] can be described thus: Artemis endonuclease inhibitor potency, dose response, biochemical, fluorescence intensity (AID 720701).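 Note: Artemis endonuclease enzyme.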 It is filed as functional.
Assay [18] has as its target Oxysterols receptor LXR-beta (Homo sapiens, UniProt P55055). It is filed as functional, cell-based.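 Note: Cell-based luminescence dose-response assay of agonist activity at LXR, run as a confirmatory counterscreen to a daf-12 agonist screen; HEK293 cells with Gal4-LXR fusion and GAL4-driven luciferase reporter; agonist potency from rising luciferase signal of a Gal4-LXR reporter.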
A short description of assay [19]: cells.

Active and inactive are the calls of the source.

By AC50 is commonly meant the midpoint of the concentration-response curve, whichever way the signal moves. As a reminder, the EC50 is the midpoint of the concentration-response curve. A word on the IC50: it is the midpoint of a concentration-inhibition curve.

Chain of COUP transcription factor 2 (P24468 whole entry): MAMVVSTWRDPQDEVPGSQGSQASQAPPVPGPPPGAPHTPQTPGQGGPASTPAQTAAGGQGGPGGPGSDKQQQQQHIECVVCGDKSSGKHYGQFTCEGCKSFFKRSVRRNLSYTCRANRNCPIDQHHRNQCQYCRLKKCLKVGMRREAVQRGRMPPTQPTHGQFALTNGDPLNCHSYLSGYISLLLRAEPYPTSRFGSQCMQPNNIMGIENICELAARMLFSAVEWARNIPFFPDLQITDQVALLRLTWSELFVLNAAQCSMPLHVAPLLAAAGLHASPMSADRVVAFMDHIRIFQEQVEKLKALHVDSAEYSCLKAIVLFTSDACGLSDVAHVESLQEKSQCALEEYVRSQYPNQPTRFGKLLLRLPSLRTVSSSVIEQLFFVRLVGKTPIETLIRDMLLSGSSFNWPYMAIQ
Chain of Cytochrome P450 3A4 (P08684 whole entry): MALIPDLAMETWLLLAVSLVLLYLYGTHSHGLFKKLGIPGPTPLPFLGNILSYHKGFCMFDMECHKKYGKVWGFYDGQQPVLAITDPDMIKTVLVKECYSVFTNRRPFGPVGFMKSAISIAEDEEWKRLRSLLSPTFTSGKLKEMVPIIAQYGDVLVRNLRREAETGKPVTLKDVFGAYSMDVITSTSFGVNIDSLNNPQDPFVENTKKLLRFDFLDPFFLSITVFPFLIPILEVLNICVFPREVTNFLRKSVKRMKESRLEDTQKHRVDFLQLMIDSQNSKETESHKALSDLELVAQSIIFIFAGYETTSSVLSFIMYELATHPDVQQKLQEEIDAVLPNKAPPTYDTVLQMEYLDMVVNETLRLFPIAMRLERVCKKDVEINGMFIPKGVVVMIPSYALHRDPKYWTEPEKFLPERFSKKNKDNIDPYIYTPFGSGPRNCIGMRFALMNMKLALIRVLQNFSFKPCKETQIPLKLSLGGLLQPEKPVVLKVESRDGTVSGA
Chain of Kallikrein-7 (P49862 whole entry): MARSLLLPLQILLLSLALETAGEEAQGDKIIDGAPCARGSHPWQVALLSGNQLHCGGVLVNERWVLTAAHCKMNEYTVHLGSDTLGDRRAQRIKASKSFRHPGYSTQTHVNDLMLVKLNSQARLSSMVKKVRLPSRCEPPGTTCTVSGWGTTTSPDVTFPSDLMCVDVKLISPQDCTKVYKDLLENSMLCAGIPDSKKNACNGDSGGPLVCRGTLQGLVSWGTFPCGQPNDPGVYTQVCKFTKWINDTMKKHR
Chain of Paired box protein Pax-8 (Q06710 whole entry): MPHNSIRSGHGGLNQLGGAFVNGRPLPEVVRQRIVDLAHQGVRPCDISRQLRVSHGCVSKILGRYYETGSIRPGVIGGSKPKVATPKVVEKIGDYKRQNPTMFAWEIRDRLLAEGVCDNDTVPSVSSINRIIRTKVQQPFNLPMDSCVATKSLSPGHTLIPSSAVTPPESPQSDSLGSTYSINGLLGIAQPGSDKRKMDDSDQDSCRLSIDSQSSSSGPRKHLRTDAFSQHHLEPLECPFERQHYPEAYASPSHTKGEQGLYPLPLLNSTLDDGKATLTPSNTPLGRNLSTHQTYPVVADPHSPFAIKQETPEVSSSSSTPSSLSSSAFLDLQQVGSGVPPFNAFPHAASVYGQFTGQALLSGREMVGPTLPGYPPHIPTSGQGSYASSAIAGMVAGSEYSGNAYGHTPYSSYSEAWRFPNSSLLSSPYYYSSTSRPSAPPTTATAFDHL
Chain of Cytochrome P450 2C19 (P33261 whole entry, the tested form may be a part): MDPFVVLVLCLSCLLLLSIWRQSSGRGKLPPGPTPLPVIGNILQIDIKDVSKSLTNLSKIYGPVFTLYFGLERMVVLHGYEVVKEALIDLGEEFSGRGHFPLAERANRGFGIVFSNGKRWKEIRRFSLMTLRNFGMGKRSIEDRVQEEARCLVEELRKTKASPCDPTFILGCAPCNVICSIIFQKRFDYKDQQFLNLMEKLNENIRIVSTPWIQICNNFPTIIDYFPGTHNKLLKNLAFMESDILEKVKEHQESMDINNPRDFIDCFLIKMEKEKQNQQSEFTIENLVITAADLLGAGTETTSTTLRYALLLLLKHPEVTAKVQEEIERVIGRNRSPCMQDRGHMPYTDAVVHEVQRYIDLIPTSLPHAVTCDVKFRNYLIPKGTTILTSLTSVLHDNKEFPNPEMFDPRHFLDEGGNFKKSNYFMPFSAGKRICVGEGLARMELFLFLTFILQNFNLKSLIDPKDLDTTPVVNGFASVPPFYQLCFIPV
Chain of Oxysterols receptor LXR-beta (P55055 whole entry, the tested form may be a part): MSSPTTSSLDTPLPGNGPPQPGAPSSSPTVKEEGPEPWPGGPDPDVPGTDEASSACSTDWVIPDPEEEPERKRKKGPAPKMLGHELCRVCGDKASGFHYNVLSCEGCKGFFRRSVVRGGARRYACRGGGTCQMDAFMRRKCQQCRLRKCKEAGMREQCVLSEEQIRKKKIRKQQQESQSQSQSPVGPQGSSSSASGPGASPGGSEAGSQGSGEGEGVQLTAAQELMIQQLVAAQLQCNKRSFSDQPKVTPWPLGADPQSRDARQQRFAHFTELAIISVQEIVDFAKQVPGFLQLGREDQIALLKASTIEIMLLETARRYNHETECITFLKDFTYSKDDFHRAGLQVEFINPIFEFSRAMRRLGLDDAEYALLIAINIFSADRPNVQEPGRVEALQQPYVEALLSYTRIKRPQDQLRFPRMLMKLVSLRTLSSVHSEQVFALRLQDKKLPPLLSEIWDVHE
Chain of NAD-dependent protein deacylase sirtuin-5, mitochondrial (Q9NXA8 whole entry, the tested form may be a part): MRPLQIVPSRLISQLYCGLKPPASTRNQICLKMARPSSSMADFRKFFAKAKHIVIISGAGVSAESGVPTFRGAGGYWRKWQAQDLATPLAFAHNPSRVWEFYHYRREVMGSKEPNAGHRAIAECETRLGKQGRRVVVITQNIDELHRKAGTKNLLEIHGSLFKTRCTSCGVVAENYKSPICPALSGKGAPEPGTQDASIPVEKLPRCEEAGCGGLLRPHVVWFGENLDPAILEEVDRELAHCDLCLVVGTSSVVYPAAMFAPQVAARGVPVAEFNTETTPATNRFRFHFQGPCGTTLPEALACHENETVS
Chain of Galanin receptor type 3 (O60755 whole entry, the tested form may be a part): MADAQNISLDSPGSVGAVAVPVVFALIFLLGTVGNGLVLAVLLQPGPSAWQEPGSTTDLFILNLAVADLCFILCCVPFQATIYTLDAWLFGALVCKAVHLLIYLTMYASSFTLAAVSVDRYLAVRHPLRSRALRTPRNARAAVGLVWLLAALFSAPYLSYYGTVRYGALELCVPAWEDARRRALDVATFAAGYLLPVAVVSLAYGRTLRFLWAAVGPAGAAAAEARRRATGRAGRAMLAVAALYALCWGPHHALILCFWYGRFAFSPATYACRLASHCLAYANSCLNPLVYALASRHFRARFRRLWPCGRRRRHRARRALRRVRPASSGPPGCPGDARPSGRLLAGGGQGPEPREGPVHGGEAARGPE
Chain of Bcl-2-like protein 10 (Q9HD36 whole entry): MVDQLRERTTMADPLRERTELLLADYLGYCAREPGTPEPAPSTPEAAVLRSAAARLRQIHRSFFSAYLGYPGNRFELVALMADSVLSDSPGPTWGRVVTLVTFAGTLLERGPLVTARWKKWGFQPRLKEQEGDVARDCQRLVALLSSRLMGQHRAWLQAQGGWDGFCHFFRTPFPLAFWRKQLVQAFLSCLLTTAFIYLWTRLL

Regarding `C[C@@H]1CCCCO[C@H](CN(C)Cc2ccncc2)[C@H](C)CN([C@@H](C)CO)C(=O)c2cc(NC(=O)NC3CCCCC3)ccc2O1`, the AC50 is 36.1 µM (active) in assay [1]; 11.3 µM (active) at Paired box protein Pax-8; 36.7 µM (active) in assay [2]; 68.3 µM (active) in assay [3]; 18.7 µM (active) in [4]; 25.5 µM (active) in assay [5].

In the case of `COC(=O)c1ccc(N2C(c3cc(OC)cc(OC)c3)=Cc3ccc(-c4cccnc4)cc3C2CC(=O)C2CC2)cc1` (configuration not stated), the EC50 on Kallikrein-7 was 38.9 µM (inactive).

On to `Cc1cccc(-c2ccc(CN(C)C[C@@H]3Oc4cc(C#C[C@@H](C)O)ccc4S(=O)(=O)N([C@@H](C)CO)C[C@@H]3C)cc2)c1`, for which the AC50 is 0.15 µM (active) in assay [6], 1.48 µM (active) in assay [7], 35.5 µM (active) in [8] and 1.85 µM (active) in [9].

As to `COc1ccc(-c2csc3ncnc(O)c23)cc1`, in assay [10], the AC50 was 15.6 µM (active).

Turning to `Cc1cc(N2CCN(c3nc4ccccc4s3)CC2)n2ncnc2n1`, the AC50 in assay [11] is 5.3 µM (active); at Cytochrome P450 3A4, 39.8 µM (inconclusive); in the assay on INS1, 5.06 µM (active); at Cytochrome P450 2C19, 14.1 µM (inconclusive); in assay [13], 6.41 µM (active); in assay [15], 4.63 µM (active). Also, the IC50 is > 80 µM (inactive) with Jurkat, 6.41 µM (active) in assay [12], > 80 µM (inactive) in [14] and 1.43 µM (active) on Galanin receptor type 3. The EC50 in the assay “cells [16]” was > 29.9 µM (inactive).

On to `Cc1cc(-c2csc(N)n2)c(C)n1C`, for which the IC50 is 26 µM (active) on Bcl-2-like protein 10 and > 20 µM (inactive) in assay [17].

On to `C/C(=N\Nc1ccccc1[N+](=O)[O-])c1ccccc1O`, for which the EC50 (in [18]; in “cells [19]”) was > 67.6 µM (inactive) each time.
